Active and inactive are the calls of the source. The calls are words filed in the database; no cut-off is given here.

The term inhibition denotes the percentage by which the read-out fell short of the control. As a reminder, the IC50 is the concentration that inhibits the measured activity by half. For orientation: MRT last means a mean duration of stay, worked out from the concentration-time curve.

The subject of series [1] is A549. Put plainly: Inhibition of cell migration in human A549 cells at 0.4 to 1.6 uM incubated for 24 hrs by crystal violet staining based transwell method. The following applies: dose 0.4-1.6 µM. Type of series: functional.
Series [2] concerns PC-3. Put plainly: Induction of cell cycle arrest in human PC-3 cells assessed as G2/M phase cells at 0.32 uM incubated for 24 hrs by PI staining based flow cytometry analysis (reference value: 12.83%). Type of series: functional.
Series [3] concerns PC-3. Put plainly: Induction of cell cycle arrest in human PC-3 cells assessed as decrease in phosphorylated Cdc2 at […] by Western blotting analysis. Type of series: functional, cell-based. As to conditions: dose 0.08-0.32 µM.
The subject of series [4] is PC-3. Put plainly: Induction of cell cycle arrest in human PC-3 cells assessed as G1 phase cells at 0.32 uM incubated for 24 hrs by PI staining based flow cytometry analysis (reference value: 56.17%). Type of series: functional. (In general: In flow cytometry, cells or beads pass a laser one at a time.)
In series [5] the test system is PC-3. In words: Induction of cell cycle arrest in human PC-3 cells assessed as decrease in phosphorylated Cdc25c at Ser216 by Western blotting analysis. Type of series: functional, cell-based. As to conditions: dose 0.08-0.32 µM. (In western blotting, separated proteins are transferred to a membrane and probed.)
Series [6] relates to PC-3. Put plainly: Inhibition of colony formation in human PC-3 cells at 40 nM incubated for 24 hrs followed by replacement with fresh media and measured after 2 weeks by crystal violet staining based assay. Type of series: functional.
In series [7] the test system is PC-3. In words: Induction of mitochondrial membrane potential loss in human PC-3 cells assessed as decrease in JC-1 aggregate level by measuring red fluorescence intensity at 0.32 uM incubated for 24 hrs by JC-1 staining based flow cytometry analysis (reference value: 93.5%). The class given is functional. The arrangement: scale not given: the % may be the effect or the level left.

Series [8] relates to PC-3. Put plainly: Induction of cell cycle arrest in human PC-3 cells assessed as increase in cyclin B1 level at 0.08 to 0.32 uM by Western blotting analysis. The class given is functional, cell-based. The following applies: dose 0.08-0.32 µM.
The nature of series [9]: Toxicity in BALB/c nude mouse xenografted with human PC-3 cells assessed as heart damage at 10 to 20 mg/kg, iv administered every 2 days and measured after 3 weeks. The class given is organism-based. The following applies: in vivo, 504 h, dose 10-20 mg/kg. (In general: A xenograft is tissue or cells of one species grown in another, often human tumour cells in immunodeficient mice.)

Series [10] deals with T1, Protein deacetylase HDAC6 (Homo sapiens, UniProt Q9UBN7).
T1 sequence (Q9UBN7 whole entry): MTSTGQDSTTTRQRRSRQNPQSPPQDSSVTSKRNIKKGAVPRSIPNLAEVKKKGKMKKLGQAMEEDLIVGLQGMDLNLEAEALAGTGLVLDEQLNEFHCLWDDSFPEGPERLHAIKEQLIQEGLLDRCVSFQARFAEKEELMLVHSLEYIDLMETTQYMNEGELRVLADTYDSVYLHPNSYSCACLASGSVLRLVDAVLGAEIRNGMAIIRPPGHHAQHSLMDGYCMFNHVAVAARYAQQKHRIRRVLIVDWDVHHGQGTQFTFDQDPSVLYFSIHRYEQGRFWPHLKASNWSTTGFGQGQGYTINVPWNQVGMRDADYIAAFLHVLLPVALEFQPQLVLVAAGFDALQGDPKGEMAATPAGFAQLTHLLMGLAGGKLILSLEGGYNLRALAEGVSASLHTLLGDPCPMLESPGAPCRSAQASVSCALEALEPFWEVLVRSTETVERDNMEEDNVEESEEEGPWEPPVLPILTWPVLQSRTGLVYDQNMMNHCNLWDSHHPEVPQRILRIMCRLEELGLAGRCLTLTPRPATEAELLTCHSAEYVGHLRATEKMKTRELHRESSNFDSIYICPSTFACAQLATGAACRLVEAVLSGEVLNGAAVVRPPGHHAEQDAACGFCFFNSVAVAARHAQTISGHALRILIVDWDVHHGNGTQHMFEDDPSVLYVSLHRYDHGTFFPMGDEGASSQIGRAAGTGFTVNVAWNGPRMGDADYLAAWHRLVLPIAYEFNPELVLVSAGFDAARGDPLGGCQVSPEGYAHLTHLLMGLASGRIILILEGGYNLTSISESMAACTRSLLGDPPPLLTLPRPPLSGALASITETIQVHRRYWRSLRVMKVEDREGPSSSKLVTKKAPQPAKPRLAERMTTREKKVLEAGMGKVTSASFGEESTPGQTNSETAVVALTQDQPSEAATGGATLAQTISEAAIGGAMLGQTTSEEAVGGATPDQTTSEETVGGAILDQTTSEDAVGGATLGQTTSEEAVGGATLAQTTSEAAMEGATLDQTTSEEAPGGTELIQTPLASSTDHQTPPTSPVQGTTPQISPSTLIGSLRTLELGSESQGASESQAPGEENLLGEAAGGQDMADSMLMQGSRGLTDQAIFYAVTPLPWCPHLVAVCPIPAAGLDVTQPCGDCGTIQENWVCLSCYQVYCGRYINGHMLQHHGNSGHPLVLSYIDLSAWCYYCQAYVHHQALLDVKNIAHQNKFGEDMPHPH
In words: Inhibition of HDAC6 in human HeLa nuclear extracts incubated for 30 mins by fluorescence based assay. The class given is cell-free.

For a further series, the target named is Tubulin. In words: (§1) Inhibition of tubulin polymerization (unknown origin) measured after 60 mins by fluorescence based assay. Type of series: protein-complex assay, Homo sapiens.
The next series deals with Tubulin (Homo sapiens) (UniProt P68371+Q9H4B7+P0DPH7+P68366+Q13509+Q71U36+P04350+Q3ZCM7+P07437+P68363+Q9BQE3+Q6PEY2+Q13885+Q9BVA1+Q9BUF5). The description is as §1. Type of series: protein-complex assay.
Series [11] has as its system PC-3. Put plainly: Induction of mitochondrial membrane potential loss in human PC-3 cells assessed as decrease in JC-1 aggregate level by measuring red fluorescence intensity at 0.08 uM incubated for 24 hrs by JC-1 staining based flow cytometry analysis (reference value: 93.5%). The class given is functional. Set-up: scale not given: the % may be the effect or the level left.

Series [12] can be described thus: MRT(0 to t) in Sprague-Dawley rat at 2 mg/kg, iv measured upto 24 hrs by HPLC-MS analysis. The class given is ADME, organism-based. As to conditions: in vivo.
Series [13] concerns the target T2, Histone deacetylase 2 (Homo sapiens, UniProt Q92769). Put plainly: Inhibition of HDAC2 in human HeLa nuclear extracts incubated for 30 mins by fluorescence based assay. Type of series: cell-based.
Series [14] has as its system PC-3. Put plainly: Induction of mitochondrial membrane potential loss in human PC-3 cells assessed as increase in monomer JC-1 level by measuring green fluorescence intensity at 0.32 uM incubated for 24 hrs by JC-1 staining based flow cytometry analysis (reference value: 6.44%). The class given is functional.
Series [15] has as its target T2, Histone deacetylase 2. In words: Inhibition of HDAC2 in human PC-3 cells assessed as increase in acetylated Histone-H3 level incubated for 24 hrs by Western blotting assay. Type of series: cell-based. The following applies: dose 0.08-0.32 µM.
Series [16] relates to A549. In words: Cytotoxicity against human A549 cells incubated for 72 hrs by MTT assay. As to conditions: A549, 72 h.
Series [17] can be described thus: Toxicity in BALB/c nude mouse xenografted with human PC-3 cells assessed as spleen damage at 10 to 20 mg/kg, iv administered every 2 days and measured after 3 weeks. The following applies: in vivo, 504 h, dose 10-20 mg/kg. The class given is organism-based.
Series [18] can be described thus: Toxicity in BALB/c nude mouse xenografted with human PC-3 cells assessed as kidney damage at 10 to 20 mg/kg, iv administered every 2 days and measured after 3 weeks. As to conditions: in vivo, 504 h, dose 10-20 mg/kg. The class given is organism-based.
The nature of series [19]: Toxicity in BALB/c nude mouse xenografted with human PC-3 cells assessed as lung damage at 10 to 20 mg/kg, iv administered every 2 days and measured after 3 weeks. The following applies: in vivo, 504 h, dose 10-20 mg/kg. The class given is organism-based.
Series [20] has as its system PC-3. In words: Induction of apoptosis in human PC-3 cells assessed as upregulation of cleaved PARP expression at 0.08 to 0.32 uM by Western blotting analysis. The class given is functional, cell-based. The following applies: dose 0.08-0.32 µM.
The subject of series [21] is PC-3. Put plainly: Induction of apoptosis in human PC-3 cells assessed as late apoptotic cells at 0.08 uM incubated for 24 hrs by Annexin V-FITC and PI staining based flow cytometry (reference value: 1.02%). Type of series: functional.

T2 sequence (Q92769 whole entry): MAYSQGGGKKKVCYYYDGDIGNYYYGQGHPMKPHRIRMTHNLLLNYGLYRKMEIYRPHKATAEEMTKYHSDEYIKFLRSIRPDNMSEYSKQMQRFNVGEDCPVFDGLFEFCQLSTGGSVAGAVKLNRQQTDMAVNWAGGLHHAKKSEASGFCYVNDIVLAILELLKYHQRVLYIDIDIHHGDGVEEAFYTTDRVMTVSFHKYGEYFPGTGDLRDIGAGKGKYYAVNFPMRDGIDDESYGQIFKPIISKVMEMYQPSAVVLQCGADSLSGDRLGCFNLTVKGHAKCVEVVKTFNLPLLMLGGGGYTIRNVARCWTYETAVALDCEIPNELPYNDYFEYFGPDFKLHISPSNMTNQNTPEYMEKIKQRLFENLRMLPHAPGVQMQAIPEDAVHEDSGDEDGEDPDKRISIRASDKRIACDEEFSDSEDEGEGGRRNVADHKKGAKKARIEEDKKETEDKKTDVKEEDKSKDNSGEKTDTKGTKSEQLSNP

`COc1ccc(/C=C/C(=O)c2ccc(OC)c3c2OC(C)(C)C=C3)cc1NCC(=O)NO`: in the series with A549 [1], the inhibition entry is “Active”. Moreover, the Activity in the series with PC-3 [2] is recorded as 82.04%; in the series on PC-3 [4] it was 6%; with PC-3 [7] it was 58.9%; in [9], “Non-Toxic”; in the series with PC-3 [11], 88.4%; with PC-3 [14], 38.8%. Also, the Activity result was “Non-Toxic” in series [17], “Non-Toxic” in series [18], “Non-Toxic” in [19] and 2.59% with PC-3 [21]. For the same molecule, the outcome in the series with PC-3 [3], with PC-3 [5], with PC-3 [8] and in the series on PC-3 [20] was Active. This molecule also yielded an inhibition at 0.04 µM with PC-3 [6] of 100%. The IC50 was 620 nM in series [10], 4820 nM against Tubulin, 430 nM on Histone deacetylase 2 [13] and 290 nM in the series with A549 [16]. The inhibition entry on Tubulin (Homo sapiens) and on Histone deacetylase 2 [15] was “Dose-Dependent Effect” in each case. The MRT last at 24 h in [12] stood at 1.32 h.

The values are drawn from ChEMBL document CHEMBL5506003, “Design and biological evaluation of dual tubulin/HDAC inhibitors based on millepachine for treatment of prostate cancer” (Eur J Med Chem, 2024).
